From US20100324017A1, “ACYLGUANIDINE DERIVATIVE” (priority 2007, published 2010)

Key:
Assay type in all cases: in vivo
MAP-induced overactivity = experiment: MAP (methane phetamine)-induced overactivity in mice, kinetic momentum by infrared sensor; conditions: mouse, oral, MAP 1 mg/kg i.p., total 60 minutes, P<0.05
Procedure: (§1) Evaluation of Various Drugs Relative to a Drug for Increasing the Kinetic Momentum of Mice (Methane Phetamine, MK-801) (Method for Measuring a Kinetic Momentum by Discharge of an Infrared Ray)
(§2) The effect of improving the positive symptoms and the negative symptoms of schizophrenia by the compound (I) was evaluated by measuring the kinetic momentum that had been […] with administration of the compound in a model causing the symptoms by methane phetamine (which is hereinafter simply referred to as MAP) and MK-801.
(§3) Species: Male ICR mouse/number of animals (number of animals per group): 8 to 12 animals per group
(§4) The animal was left in a laboratory for 1 hour or longer to be acclimated to the environment, and the animal was taken from the feeding cage, orally administered with a compound to be tested, and then returned to the feeding cage. After 30 minutes, it was put into a cage for measurement, and the kinetic momentum of just the compound to be tested was measured. Further, after 30 minutes, the animal was taken out, and intraperitoneally administered with a drug for increasing kinetic momentum (MAP; 1 mg/kg or MK-801; 0.3 mg/kg, all dissolved in physiological saline), and its kinetic momentum was measured for a certain time (60 minutes) using a device for measuring the kinetic momentum by means of an infrared ray sensor (CompACT AMS, Muromachi Kikai Co., Ltd.). Also, the test was carried out under non-fasting.
(§5) The 60 minutes of measurements was classified into three groups: a first half 30 minutes, a second half 30 minutes, and a total 60 minutes. For a normal mouse (a mouse administered with physiological saline) and a mouse administered with the drug for increasing kinetic momentum, a Student's T test was used for evaluation in each interval. For the group administered with the compound to be tested, a solvent (vehicle) group and a Dunnett's T test were carried out and evaluated. For the evaluation, in case where there was a significant (P<0.05) difference for the total 60 minutes, it was considered to be effective.

[1] = test system: MK-801-induced overactivity; experiment: MK-801-induced overactivity in mice, kinetic momentum by infrared sensor; conditions: mouse, oral, dose 0.01 mg/kg; MK-801 0.3 mg/kg i.p.; total 60 minutes, P<0.05
Procedure: as §1, §2, §3, §4, §5

[2] = test system: PCP-induced prepulse inhibition (PPI) disorder; experiment: Disorder of PCP-induced prepulse inhibition (PPI) in a rat; conditions: oral, PCP 1 mg/kg s.c., % PPI
Procedure: An Improvement Effect for a Disorder of PCP-Induced Prepulse Inhibition (PPI) in a Rat
A startle amplitude occurs in humans to which an sound stimulus has been given, but in healthy human, this startle amplitude is inhibited by the giving of a weak sound stimulus that precedes the sound stimulus. For a patient with schizophrenia, the inhibitory function similarly declined. It is known that when a rat is administered with PCP (phencyclidine), there is a symptom similar to the negative symptom of schizophrenia in humans. Using this model, the improvement effect of the compound (I) for the information processing disorder included in cognitive impairment of schizophrenia was evaluated.
Species: Male Wistar rat/number of the animals (number of animals per group): 12 animals per group
Startle amplitude measuring device for small animals: an SR-LAB ABS system (manufactured by San Diego Instruments)
An animal holder, to which a Plexiglas-made cylinder for animal storage having a diameter of 8.2 cm was attached, was positioned in the upper part of a Plexiglas-made frame in a measurement box. In the measurement box, a sound-insulating treatment and ventilation (FAN) were carried out. Sound was administered by a speaker attached to the 24 cm upper part of the cylinder. The movement of the animals in the cylinder was detected by a transducer attached in the lower part of the frame and recorded by a microcomputer via an interface.
The experiment was initiated after the animals were put into the chamber for measurement and had spent 10 minutes adapting to the measurement environment. Basically, at 35 minutes after the compound to be tested was orally administered, 1 mg/kg of PCP was subcutaneously administered (1 ml/kg). Five minutes later, the rats were put into a chamber for measurement, allowed to adapt for 10 minutes, and the measurement was then initiated. A white noise of 65 dB (for all frequencies, a disordered noise having a constant energy per unit band) used as a background noise was always played through the break periods and the sessions. The three types of trials as shown below were carried out in a random order 10 times for each type with 30 times in total. Each trial was carried out at a pseudo-random interval of 20 to 60 seconds with an average of 40 seconds. A pulse was defined as a white noise of 120 dB, 20 msec, and a prepulse was defined as a white noise of 70, 80 dB, 20 msec.
The startle amplitude of the animal was measured for 100 msec from the initiation of the pulse, and the maximum value was taken as a “maximum startle amplitude (Vmax))”. The “maximum startle amplitude” for the ten times for each of the three types of trials were averaged, and taken as a “startle amplitude (simply referred to as SA)” under the stimulation condition.
The % prepulse inhibition (% PPI) was calculated in the following equation in the PP80 & P trial of 3) above.
% Prepulse inhibition (% PPI)=(Startle amplitude at P-alone trial (SA)−Startle amplitude (SA) at a PP80 & P trial)/Startle amplitude at P alone trial×100
The measured value was expressed as an average value (mean±SE). First, the startle amplitudes (SA) were statistically analyzed. […] For the measured data of % PPI, the normal group and the control group (the group administered with PCP) were compared by a Student t-test, and for the control group and the group administered with the compound to be tested were compared using a Dunnett evaluation. […] The effect of the compound to be tested was assessed with % PPI.

| Structure (SMILES) | inhibition of MAP-induced overactivity (MAP-induced overactivity; dose 0.003 mg/kg) | inhibition of MK-801-induced overactivity [1] | improvement of the disorder of PCP prepulse inhibition (PPI) ([2]; dose 0.1 mg/kg) | improvement of the disorder of PCP prepulse inhibition (PPI) ([2]; dose 0.3 mg/kg) | inhibition of MAP-induced overactivity (MAP-induced overactivity; dose 0.01 mg/kg) | improvement of the disorder of PCP prepulse inhibition (PPI) ([2]; dose 0.03 mg/kg) |
| --- | --- | --- | --- | --- | --- | --- |
| CC(C)n1c2cc(C(=O)N=C(N)N)ccc2c2c(CO)cccc21 [Example 65] | significantly inhibited | significantly inhibited | significantly improved | significantly improved | – | – |
| NC(N)=NC(=O)c1ccc2c3ccccc3n(C3CCOCC3)c2c1 [Example 25] | – | significantly inhibited | significantly improved | – | significantly inhibited | significantly improved |
